US8501752B2, “Methods for treating cancer and other pathological proliferating disorders by inhibiting mitosis using pyrrolo[2,3-d]pyrimidines” (Duquesne University of the Holy Ghost, priority 2005, dated 2013)
Entries after “also recorded” stand apart in the source; their conditions may differ.

Assays:
RPM1-8226 = experiment: NCI IVCLSP growth inhibition (SRB), RPM1-8226; assay type: cell-based, human; details: 48 h drug incubation
Procedure: (§1) FIG. 1 presents nine compounds that were tested using the National Cancer Institute (NCI) 60 human tumor cell lines. The cells lines, which represent leukemia, melanoma, and cancers of the lung, colon, brain, ovary, breast, prostate, and kidney, are listed in Table 1.
(§2) Compounds 1-9 were tested according to the NCI Developmental Therapeutics Program (DTP) In Vitro Cell Line Screening Project (IVCLSP). […] Methodology for testing under the IVCLSP is as follows: The human tumor cell lines of the cancer screening panel are grown in RPMI 1640 medium containing 5% fetal bovine serum and 2 mM L-glutamine. […]
(§3) Following drug addition, the plates are incubated for an additional 48 h at 37° C., 5% CO2, 95% air, and 100% relative humidity. […] Bound stain is subsequently solubilized with 10 mM trizma base, and the absorbance is read on an automated plate reader at a wavelength of 515 nm. […] Using the seven absorbance measurements [time zero, (Tz), control growth, (C), and test growth in the presence of drug at the five concentration levels (Ti)], the percentage growth is calculated at each of the drug concentrations levels. Percentage growth inhibition is calculated as: [(Ti−Tz)/(C−Tz)]×100 for concentrations for which Ti>/=Tz [(Ti−Tz)/Tz]×100 for concentrations for which Ti<Tz.
(§4) Three dose response parameters are calculated for each experimental agent. […]

NCI-H460 = experiment: NCI IVCLSP growth inhibition (SRB), NCI-H460; assay type: cell-based, human; details: 48 h drug incubation
Procedure: as §1, §2, §3, §4

COLO 205 = experiment: NCI IVCLSP growth inhibition (SRB), COLO 205; assay type: cell-based, human; details: 48 h drug incubation
Procedure: as §1, §2, §3, §4

SK-MEL-28 = experiment: NCI IVCLSP growth inhibition (SRB), SK-MEL-28; assay type: cell-based, human; details: 48 h drug incubation
Procedure: as §1, §2, §3, §4

SK-MEL-5 = experiment: NCI IVCLSP growth inhibition (SRB), SK-MEL-5; assay type: cell-based, human; details: 48 h drug incubation
Procedure: as §1, §2, §3, §4

UACC-257 = experiment: NCI IVCLSP growth inhibition (SRB), UACC-257; assay type: cell-based, human; details: 48 h drug incubation
Procedure: as §1, §2, §3, §4

OVCAR-3 = experiment: NCI IVCLSP growth inhibition (SRB), OVCAR-3; assay type: cell-based, human; details: 48 h drug incubation
Procedure: as §1, §2, §3, §4

OVCAR-5 = experiment: NCI IVCLSP growth inhibition (SRB), OVCAR-5; assay type: cell-based, human; details: 48 h drug incubation
Procedure: as §1, §2, §3, §4

OVCAR-8 = experiment: NCI IVCLSP growth inhibition (SRB), OVCAR-8; assay type: cell-based, human; details: 48 h drug incubation
Procedure: as §1, §2, §3, §4

SK-OV-3 = experiment: NCI IVCLSP growth inhibition (SRB), SK-OV-3; assay type: cell-based, human; details: 48 h drug incubation
Procedure: as §1, §2, §3, §4

A498 = experiment: NCI IVCLSP growth inhibition (SRB), A498; assay type: cell-based, human; details: A498; 48 h drug incubation, SRB
Procedure: as §1, §2, §3, §4

ACHN = experiment: NCI IVCLSP growth inhibition (SRB), ACHN; assay type: cell-based, human; details: 48 h drug incubation
Procedure: as §1, §2, §3, §4

KM12 = experiment: NCI IVCLSP growth inhibition (SRB), KM12; assay type: cell-based, human; details: 48 h drug incubation
Procedure: as §1, §2, §3, §4

SW-620 = experiment: NCI IVCLSP growth inhibition (SRB), SW-620; assay type: cell-based, human; details: 48 h drug incubation
Procedure: as §1, §2, §3, §4

SF-295 = experiment: NCI IVCLSP growth inhibition (SRB), SF-295; assay type: cell-based, human; details: 48 h drug incubation
Procedure: as §1, §2, §3, §4

SF-539 = experiment: NCI IVCLSP growth inhibition (SRB), SF-539; assay type: cell-based, human; details: 48 h drug incubation
Procedure: as §1, §2, §3, §4

MALME-3M = experiment: NCI IVCLSP growth inhibition (SRB), MALME-3M; assay type: cell-based, human; details: 48 h drug incubation
Procedure: as §1, §2, §3, §4

M14 = experiment: NCI IVCLSP growth inhibition (SRB), M14; assay type: cell-based, human; details: 48 h drug incubation
Procedure: as §1, §2, §3, §4

UO-31 = experiment: NCI IVCLSP growth inhibition (SRB), UO-31; assay type: cell-based, human; details: 48 h drug incubation
Procedure: as §1, §2, §3, §4

MDA-N = experiment: NCI IVCLSP growth inhibition (SRB), MDA-N; assay type: cell-based, human; details: 48 h drug incubation
Procedure: as §1, §2, §3, §4

BT-549 = experiment: NCI IVCLSP growth inhibition (SRB), BT-549; assay type: cell-based, human; details: 48 h drug incubation
Procedure: as §1, §2, §3, §4

[1] = system: NCI 60 human tumor cell lines; experiment: NCI IVCLSP growth inhibition, whole panel (text summaries); assay type: cell-based
Procedure: as §1
Compounds 1-9 were tested according to the NCI Developmental Therapeutics Program (DTP) In Vitro Cell Line Screening Project (IVCLSP). […] Methodology for testing under the IVCLSP is as follows: The human tumor cell lines of the cancer screening panel are grown in RPMI 1640 medium containing 5% fetal bovine serum and 2 mM L-glutamine. For a typical screening experiment, cells are inoculated into 96 well microtiter plates in 100 μL at plating densities ranging from 5,000 to 40,000 cells/well depending on the doubling time of individual cell lines. After cell inoculation, the microtiter plates are incubated at 37° C., 5% CO2, 95% air and 100% relative humidity for 24 h prior to addition of experimental drugs.
After 24 h, two plates of each cell line are fixed in situ with TCA, to represent a measurement of the cell population for each cell line at the time of drug addition (Tz). Experimental drugs are solubilized in dimethyl sulfoxide at 400-fold the desired final maximum test concentration and stored frozen prior to use. At the time of drug addition, an aliquot of frozen concentrate is thawed and diluted to twice the desired final maximum test concentration with complete medium containing 50 μg/ml gentamicin. Additional four, 10-fold or ½ log serial dilutions are made to provide a total of five drug concentrations plus control. Aliquots of 100 μl of these different drug dilutions are added to the appropriate microtiter wells already containing 100 μl of medium, resulting in the required final drug concentrations.
Following drug addition, the plates are incubated for an additional 48 h at 37° C., 5% CO2, 95% air, and 100% relative humidity. For adherent cells, the assay is terminated by the addition of cold TCA. Cells are fixed in situ by the gentle addition of 50 μl of cold 50% (w/v) TCA (final concentration, 10% TCA) and incubated for 60 minutes at 4° C. The supernatant is discarded, and the plates are washed five times with tap water and air dried. Sulforhodamine B (SRB) solution (100 μl) at 0.4% (w/v) in 1% acetic acid is added to each well, and plates are incubated for 10 minutes at room temperature. After staining, unbound dye is removed by washing five times with 1% acetic acid and the plates are air dried. Bound stain is subsequently solubilized with 10 mM trizma base, and the absorbance is read on an automated plate reader at a wavelength of 515 nm. For suspension cells, the methodology is the same except that the assay is terminated by fixing settled cells at the bottom of the wells by gently adding 50 μl of 80% TCA (final concentration, 16% TCA). Using the seven absorbance measurements [time zero, (Tz), control growth, (C), and test growth in the presence of drug at the five concentration levels (Ti)], the percentage growth is calculated at each of the drug concentrations levels. Percentage growth inhibition is calculated as: [(Ti−Tz)/(C−Tz)]×100 for concentrations for which Ti>/=Tz [(Ti−Tz)/Tz]×100 for concentrations for which Ti<Tz.
Three dose response parameters are calculated for each experimental agent. […] The drug concentration resulting in total growth inhibition (TGI) is calculated from Ti=Tz. […]

[2] = system: T24, MCF-7, NCI/ADR, MCF-7/VP; experiment: Cytotoxicity, panel of human tumor cell lines of Table 3 (text summaries)
Text: These cell lines are resistant to anticancer drugs due to overexpression of the transport proteins P-glycoprotein or MRP1.

## COc1cc(CCc2cn(Cc3ccccc3)c3nc(N)nc(C)c23)cc(OC)c1OC [Compound 1]
RPM1-8226
  GI50: 439 nM
NCI-H460
  GI50: 162 nM
COLO 205
  GI50: 190 nM
SK-MEL-28
  GI50: > 1000 nM
SK-MEL-5
  GI50: 61.1 nM
UACC-257
  GI50: 80.2 nM
OVCAR-3
  GI50: 28.8 nM
OVCAR-5
  GI50: > 1000 nM
OVCAR-8
  GI50: 364 nM
SK-OV-3
  GI50: 506 nM
A498
  GI50: 136 nM
ACHN
  GI50: 728 nM
KM12
  GI50: 194 nM
SW-620
  GI50: 236 nM
SF-295
  GI50: 41.8 nM
SF-539
  GI50: 74.5 nM
MALME-3M
  GI50: 283 nM
M14
  GI50: 77 nM
UO-31
  GI50: 347 nM
MDA-N
  GI50: < 10 nM
BT-549
  GI50: > 1000 nM
[1]; NCI 60 tumor panel
  GI50 values, level across the tumor cell lines (in words): nanomolar to submicromolar levels; also recorded: single or two digit nanomolar levels against 16 tumor cell lines; also recorded: submicromolar levels against 40 tumor cell lines; also recorded: micromolar levels against 3 tumor cell lines
[1]; requirement for a microtubule-targeting agent, satisfied
  average GI50: one μM or less
[2]
  cytotoxic potency, better than Compound 4 (2-OMe): 10 fold
  effect of P-glycoprotein / MRP1 overexpression on cell sensitivity (in words): neither P-glycoprotein nor MRP1 affect cell sensitivity
[2]; all tested cell lines
  cytotoxic potency (in words): Submicromolar cytotoxic potency
